The values below come from US8927587B2, “Chemical compounds” (Pfizer Limited, priority 2012, dated 2015).

This assay has as its target T1, hNav1.8 (Homo sapiens, UniProt Q9Y5Y9).
T1 construct: host or cells: HEK cells, stably transfected
In words: hNav1.8 whole-cell patch-clamp electrophysiology (conventional or PatchXpress 7000) in stably transfected HEK cells. Format: cell-based. The following applies: estimated IC50 calculated from single point % inhibition; HEK cells expressing hNav1.8; 8 sec prepulse to V1/2, 20 msec step to 0 mV; average of replicates; read-out: Nav1.8 EIC50. Put shortly:
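Whole-cell voltage clamp at 22-24 °C in HEK cells stably expressing hNav1.8, manually or on PatchXpress. Current evoked by 20 msec step to 0 mV after 8 s prepulse to each cell's inactivation V1/2; single-concentration % inhibition converted to estimated IC50, using only 20-80% inhibition values, averaged over replicates.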

T1 sequence (Q9Y5Y9 whole entry): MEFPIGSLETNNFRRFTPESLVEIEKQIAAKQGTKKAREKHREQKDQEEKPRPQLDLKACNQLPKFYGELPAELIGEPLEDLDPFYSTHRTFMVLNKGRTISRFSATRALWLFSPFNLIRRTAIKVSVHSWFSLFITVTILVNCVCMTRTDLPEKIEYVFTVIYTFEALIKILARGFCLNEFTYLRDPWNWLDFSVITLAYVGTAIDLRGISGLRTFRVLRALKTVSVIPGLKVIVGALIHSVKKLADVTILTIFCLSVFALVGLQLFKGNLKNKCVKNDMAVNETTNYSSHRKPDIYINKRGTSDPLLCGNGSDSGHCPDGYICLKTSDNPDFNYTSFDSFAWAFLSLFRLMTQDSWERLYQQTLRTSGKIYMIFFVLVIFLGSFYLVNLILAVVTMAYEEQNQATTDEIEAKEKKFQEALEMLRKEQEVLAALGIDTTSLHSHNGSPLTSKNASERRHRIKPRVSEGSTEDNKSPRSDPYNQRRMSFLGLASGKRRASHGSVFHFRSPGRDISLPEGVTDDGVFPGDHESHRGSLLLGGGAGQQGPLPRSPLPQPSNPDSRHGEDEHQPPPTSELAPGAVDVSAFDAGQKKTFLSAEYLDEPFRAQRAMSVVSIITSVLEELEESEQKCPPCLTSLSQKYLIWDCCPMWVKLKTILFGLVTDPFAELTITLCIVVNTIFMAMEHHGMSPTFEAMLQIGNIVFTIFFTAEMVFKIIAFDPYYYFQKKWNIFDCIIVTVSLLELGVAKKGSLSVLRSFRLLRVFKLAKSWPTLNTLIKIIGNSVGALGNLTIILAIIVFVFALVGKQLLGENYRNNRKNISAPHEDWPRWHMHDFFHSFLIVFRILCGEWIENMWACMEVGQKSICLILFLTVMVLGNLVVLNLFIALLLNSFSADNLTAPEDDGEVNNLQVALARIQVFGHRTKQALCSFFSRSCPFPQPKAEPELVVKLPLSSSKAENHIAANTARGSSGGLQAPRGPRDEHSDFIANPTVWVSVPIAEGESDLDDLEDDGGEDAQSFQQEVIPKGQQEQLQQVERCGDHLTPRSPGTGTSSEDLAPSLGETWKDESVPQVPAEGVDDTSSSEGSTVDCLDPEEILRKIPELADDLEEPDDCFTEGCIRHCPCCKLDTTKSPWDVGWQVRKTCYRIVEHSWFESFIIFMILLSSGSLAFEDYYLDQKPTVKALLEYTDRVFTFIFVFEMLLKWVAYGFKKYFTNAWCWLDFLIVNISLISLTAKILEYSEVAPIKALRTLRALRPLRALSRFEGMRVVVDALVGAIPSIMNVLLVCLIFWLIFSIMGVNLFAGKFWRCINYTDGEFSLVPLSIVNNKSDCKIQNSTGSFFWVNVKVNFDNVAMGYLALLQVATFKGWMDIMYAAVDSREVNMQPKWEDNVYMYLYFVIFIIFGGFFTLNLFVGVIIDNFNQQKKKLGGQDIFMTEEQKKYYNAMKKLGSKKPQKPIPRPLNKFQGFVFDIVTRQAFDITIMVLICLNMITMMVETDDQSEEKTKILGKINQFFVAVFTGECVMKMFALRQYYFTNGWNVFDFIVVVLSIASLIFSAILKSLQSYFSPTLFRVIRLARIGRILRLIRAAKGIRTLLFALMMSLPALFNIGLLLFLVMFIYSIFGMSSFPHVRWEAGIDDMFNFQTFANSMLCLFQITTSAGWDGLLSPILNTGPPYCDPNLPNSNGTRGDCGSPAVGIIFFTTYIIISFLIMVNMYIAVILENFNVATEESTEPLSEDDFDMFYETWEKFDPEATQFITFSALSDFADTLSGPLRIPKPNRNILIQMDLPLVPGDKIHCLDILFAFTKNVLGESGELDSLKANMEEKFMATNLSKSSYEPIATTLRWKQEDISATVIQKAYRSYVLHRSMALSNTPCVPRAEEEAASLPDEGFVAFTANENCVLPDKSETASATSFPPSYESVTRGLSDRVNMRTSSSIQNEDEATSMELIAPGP

Consider `CC(C)(C)c1ccc2[nH]c([C@@H](N)C(C)(C)O)nc2c1` [Example 102, (1R)-1-Amino-1-(5-tert-butyl-1H-benzimidazol-2-yl)-2-methylpropan-2-ol], for which the IC50 was 71 nM.

On to `[2H][13C]([2H])([2H])[C@@H](C(N)=O)[C@H](N)c1nc2cc(C(C)(C)C)ccc2[nH]1` [Example 105, (2R,3S)-3-Amino-3-(5-tert-butyl-1H-benzimidazol-2-yl)-2-(^13CD3-methyl)propanamide], for which the IC50 is 69.9 nM.

On to `C[C@H](OC(N)=O)[C@H](N)c1nc2cc(C(C)(C)C)ccc2[nH]1` [Example 106, (1R,2S)-1-Amino-1-(5-tert-butyl-1H-benzimidazol-2-yl)propan-2-yl carbamate], for which the IC50 was 35 nM.

Consider `C[C@@H](OC(N)=O)[C@H](N)c1nc2cc(C(C)(C)C)ccc2[nH]1` [Example 107, (1R,2R)-1-Amino-1-(6-tert-butyl-1H-benzimidazol-2-yl)propan-2-yl carbamate], for which the IC50 is 356 nM.

On to `CNC(=O)[C@H](C)[C@H](N)c1nc2cc(C(C)(C)C)ccc2[nH]1` [Example 108, (2R,3S)-3-Amino-3-(6-tert-butyl-1H-benzimidazol-2-yl)-N,2-dimethylpropanamide], for which the IC50 was 207 nM.

`C[C@@H](C(N)=O)[C@H](N)c1nc2cc(-c3ccc(C#N)c(F)c3)ccc2[nH]1` [Example 109, (2R,3S)-3-Amino-3-[5-(4-cyano-3-fluorophenyl)-1H-benzimidazol-2-yl]-2-methylpropanamide]: the IC50 is 56.1 nM.

Take `C[C@@H](C(N)=O)[C@H](N)c1nc2c(Cl)c(-c3ccc(C#N)c(F)c3)ccc2[nH]1` [Example 110, (2R,3S)-3-Amino-3-[4-chloro-5-(4-cyano-3-fluorophenyl)-1H-benzimidazol-2-yl]-2-methylpropanamide]: the IC50 is 233 nM.

Take `C[C@@H](C(N)=O)[C@H](N)c1nc2c(Cl)c(-c3ccc(C#N)cc3)ccc2[nH]1` [Example 111, (2R,3S)-3-Amino-3-[4-chloro-5-(4-cyanophenyl)-1H-benzimidazol-2-yl]-2-methylpropanamide]: the IC50 is 190 nM.

Regarding `CC[C@H](N)c1nc2cc(CC(C)(C)C)ccc2[nH]1` [Example 112, (1S)-1-[5-(2,2-Dimethylpropyl)-1H-benzimidazol-2-yl]propan-1-amine], the IC50 was 187 nM.

Take `CC[C@H](N)c1nc2cc(C3CCC3)ccc2[nH]1` [Example 113, 1-(5-Cyclobutyl-1H-benzimidazol-2-yl)propylamine]: the IC50 is 749 nM.

For the molecule `N#Cc1ccc(-c2ccc3[nH]c(C4(N)Cc5ccccc5C4)nc3c2)cc1F` [Example 114, 4-[2-(2-Amino-2,3-dihydro-1H-inden-2-yl)-1H-benzimidazol-5-yl]-2-fluorobenzonitrile], the IC50 is 27.8 nM.

With `CC(C)(C)Cc1ccc2[nH]c(C(C)(N)CO)nc2c1` (centres unmarked) [Example 115, 2-Amino-2-[6-(2,2-dimethylpropyl)-1H-benzimidazol-2-yl]propan-1-ol], the IC50 is 278 nM.

For `CC(C)(C)Cc1ccc2[nH]c(C3(N)Cc4ccccc4C3)nc2c1` [Example 116, 2-[6-(2,2-Dimethylpropyl)-1H-benzimidazol-2-yl]-2,3-dihydro-1H-inden-2-amine], the IC50 was 222 nM.

On to `N#Cc1ccc(-c2ccc3[nH]c([C@@H](N)CC(N)=O)nc3c2)cc1F` [Example 117, (3S)-3-Amino-3-[5-(4-cyano-3-fluorophenyl)-1H-benzimidazol-2-yl]propanamide], for which the IC50 is 2490 nM.

As to `CC(C)(C)Cc1ccc2[nH]c([C@@H](N)CC(N)=O)nc2c1` [Example 118, (3S)-3-Amino-3-[5-(2,2-dimethylpropyl)-1H-benzimidazol-2-yl]propanamide], the IC50 was 348 nM.

With `N#Cc1ccc(-c2ccc3[nH]c([C@@H](N)CC(N)=O)nc3c2)c(Cl)c1` [Example 119, (3S)-3-Amino-3-[5-(2-chloro-4-cyanophenyl)-1H-benzimidazol-2-yl]propanamide], the IC50 was 671 nM.

For `CO[C@H](C)[C@H](N)c1nc2c(Cl)c(-c3ccc(C#N)c(F)c3)ccc2[nH]1` [Example 120, 4-{2-[(1R,2R)-1-Amino-2-methoxypropyl]-4-chloro-1H-benzimidazol-5-yl}-2-fluorobenzonitrile], the IC50 was 88.5 nM.

As to `C[C@@H](O)[C@H](N)c1nc2c(Cl)c(-c3ccc(C#N)c(F)c3)ccc2[nH]1` [Example 121, 4-{2-[(1R,2R)-1-Amino-2-hydroxypropyl]-4-chloro-1H-benzimidazol-5-yl}-2-fluorobenzonitrile], the IC50 was 3050 nM.

As to `C[C@@H](O)[C@H](N)c1nc2cc(-c3ccc(C#N)cc3Cl)ccc2[nH]1` [Example 122, 4-{2-[(1R,2R)-1-Amino-2-hydroxypropyl]-1H-benzimidazol-6-yl}-3-chlorobenzonitrile], the IC50 was 326 nM.

With `CO[C@H](C)[C@H](N)c1nc2cc(C(C)C)ccc2[nH]1` [Example 123, (1R,2R)-2-Methoxy-1-[5-(propan-2-yl)-1H-benzimidazol-2-yl]propan-1-amine], the IC50 is 1080 nM.

`CC(C)c1ccc2[nH]c([C@@H](N)[C@H](O)C(C)C)nc2c1` [Example 125, (1R,2R)-1-Amino-3-methyl-1-[5-(propan-2-yl)-1H-benzimidazol-2-yl]butan-2-ol]: the IC50 is 2220 nM.

On to `CC[C@@H](O)[C@H](N)c1nc2cc(C(C)C)ccc2[nH]1` [Example 126, (1R,2R)-1-Amino-1-[5-(propan-2-yl)-1H-benzimidazol-2-yl]butan-2-ol], for which the IC50 was 967 nM.

Turning to `CO[C@@H](C)[C@H](N)c1nc2cc(C(C)C)ccc2[nH]1` [Example 127, (1R,2S)-2-Methoxy-1-[5-(propan-2-yl)-1H-benzimidazol-2-yl]propan-1-amine], the IC50 is 2770 nM.

As for `CO[C@@H](C)[C@H](N)c1nc2cc(C(C)(C)C)ccc2[nH]1` [Example 128, (1R,2S)-1-(5-tert-Butyl-1H-benzimidazol-2-yl)-2-methoxypropan-1-amine], the IC50 was 368 nM.

Take `CC(C)(C)c1ccc2[nH]c([C@@H]3CCN3)nc2c1` [Example 129, 2-[(2S)-Azetidin-2-yl]-5-tert-butyl-1H-benzimidazole]: the IC50 was 510 nM.

As for `CC(C)(C)c1ccc2[nH]c([C@H]3CCN3)nc2c1` [Example 130, 2-[(2R)-Azetidin-2-yl]-5-tert-butyl-1H-benzimidazole], the IC50 was 1340 nM.

For the molecule `CC(C)(C)c1ccc2[nH]c([C@@H]3C[C@@H](F)CN3)nc2c1` [Example 131, 5-tert-Butyl-2-[(2S,4R)-4-fluoropyrrolidin-2-yl]-1H-benzimidazole], the IC50 was 394 nM.

Consider `CC(C)(C)c1ccc2[nH]c([C@@H]3C[C@H](F)CN3)nc2c1` [Example 132, 5-tert-Butyl-2-[(2S,4S)-4-fluoropyrrolidin-2-yl]-1H-benzimidazole], for which the IC50 is 191 nM.

For the molecule `CC(C)[C@@H](O)[C@H](N)c1nc2cc(C(C)(C)C)ccc2[nH]1` [Example 133, (1R,2R)-1-Amino-1-(5-tert-butyl-1H-benzimidazol-2-yl)-3-methylbutan-2-ol], the IC50 was 228 nM.

For the molecule `CC(C)(C)c1ccc2[nH]c([C@H](N)CCO)nc2c1` [Example 134, (3R)-3-Amino-3-(5-tert-butyl-1H-benzimidazol-2-yl)propan-1-ol], the IC50 was 355 nM.

As for `CC(C)(C)c1ccc2[nH]c([C@H](N)CCCO)nc2c1` [Example 135, (4R)-4-Amino-4-(5-tert-butyl-1H-benzimidazol-2-yl)butan-1-ol], the IC50 was 1000 nM.

For `CC(C)(C)c1ccc2[nH]c([C@H]3NCC[C@H]3O)nc2c1` [Example 136, (2R,3R)-2-(5-tert-Butyl-1H-benzimidazol-2-yl)pyrrolidin-3-ol], the IC50 is 508 nM.

As for `C[C@@H](O)[C@@H](N)c1nc2cc(-c3ccc(C#N)cc3)ccc2[nH]1` [Example 137, 4-{2-[(1S,2R)-1-Amino-2-hydroxypropyl]-1H-benzimidazol-5-yl}benzonitrile], the IC50 is 915 nM.

In the case of `C[C@H](O)[C@H](N)c1nc2cc(-c3ccc(C#N)cc3)ccc2[nH]1` [Example 138, 4-{2-[(1R,2S)-1-Amino-2-hydroxypropyl]-1H-benzimidazol-5-yl}benzonitrile], the IC50 is 486 nM.

On to `CC[C@@H](O)[C@H](N)c1nc2cc(C(C)(C)C)ccc2[nH]1` [Example 139, (1R,2R)-1-Amino-1-(5-tert-butyl-1H-benzimidazol-2-yl)butan-2-ol], for which the IC50 is 43.5 nM.

Regarding `CC(C)(C)c1ccc2[nH]c([C@@H](N)CCCO)nc2c1` [Example 140, (4S)-4-Amino-4(5-tert-butyl-1H-benzimidazol-2-yl)butan-1-ol], the IC50 is 223 nM.

As for `CC(C)(C)c1ccc2[nH]c([C@@H](N)C(C)(C)C(N)=O)nc2c1` [Example 141, (3S)-3-Amino-3-(5-tert-butyl-1H-benzimidazol-2-yl)-2,2-dimethylpropanamide], the IC50 was 797 nM.

As for `COC(C)(C)C(N)c1nc2cc(-c3ccc(C#N)cc3)ccc2[nH]1` (centres unmarked) [Example 142, 4-[2-(1-Amino-2-methoxy-2-methylpropyl)-1H-benzimidazol-5-yl]benzonitrile], the IC50 was 1840 nM.

Turning to `CC(C)(C)c1ccc2[nH]c([C@@H](N)COC(N)=O)nc2c1` [Example 143, (R)-2-Amino-2-(5-(tert-butyl)-1H-benzo[d]imidazol-2-yl)ethyl carbamate], the IC50 is 85.2 nM.

In the case of `CC[C@@H](C(N)=O)[C@H](N)c1nc2cc(C(C)(C)C)ccc2[nH]1` [Example 144, (R)-2-((S)-Amino-(6-(tert-butyl)-1H-benzo[d]imidazol-2-yl)methyl)butanamide], the IC50 was 41.3 nM.

On to `CO[C@H](C)[C@H](N)c1nc2cc(C3CCCC3)ccc2[nH]1` [Example 145, (1R,2R)-1-(5-Cyclopentyl-1H-benzo[d]imidazol-2-yl)-2-methoxypropan-1-amine], for which the IC50 was 284 nM.
